# Measured values from patent publication US20190262363A1, “ANTAGONIST OF MINERALOCORTICOID RECEPTOR FOR THE TREATMENT OF OSTEOARTHRITIS” (INSERM (INSTITUT NATIONAL DE LA SANTÉ ET DE LA RECHERCHE …, priority 2016, published 2019).
# “Also recorded” adds a separate entry of the source.
# Tested on: knee joints of SHHF^cp/cp rats (metabolic syndrome associated osteoarthritis model) and lean SHHF^+/+ rats
# Assay: Chronic eplerenone treatment in lean SHHF+/+ and MetS SHHFcp/cp rats; knee joint histology and OARSI scoring
# Assay type: in vivo, rat
# Source text: In this study were used lean SHHF^+/+ (spontaneously hypertensive heart failure) rats as controls and obese SHHF^cp/cp rats, which have been characterized as a good model for metabolic syndrome (MetS). […] The absence of eple means that the considered rats are part of a control placebo group.
# Animals of both lean SHHF^+/+ and MetS SHHF^cp/cp genotypes were divided randomly into two groups. Group I (n=4 for SHHF^+/+ and n=4 for SHHF^cp/cp) was given placebo and group II (n=4 for SHHF^+/+ and n=9 for SHHF^cp/cp) was given 100 mg.kg-1.day-1 of the selective MRA eplerenone (pure active molecule provided by Pfizer) in drinking water from 1.5 months to 12.5 months of age. The knee joints of 1.5- and 12.5- month-old specimens of each group (untreated SHHF^+/+ and SHHF^cp/cp and their treated counterparts) were fixed in 4% paraformaldehyde, decalcified in EDTA-phosphate buffered solution and then embedded in paraffin. […] thick adjacent sections were stained with Toluidine Blue, Hematoxylin and Eosin or submitted to collagen II immunohistochemistry in order to investigate cartilage destruction, osteophyte formation and lesions of the synovial tissue, respectively. The corresponding scores following OARSI guidelines were done blindly by independent researchers.
structure (smiles),measurement,setting,value
"COC(=O)[C@@H]1CC2=CC(=O)CC[C@]2(C)[C@@]23O[C@@H]2C[C@@]2(C)[C@@H](CC[C@@]24CCC(=O)O4)[C@H]13 [eplerenone, Pregn-4-ene-7,21-dicarboxylic acid, 9,11-epoxy-17-hydroxy-3-oxo-,y-lactone, methyl ester, (7α,11α,17β)]",Cartilage histology (toluidine blue): fibrillations and loss of proteoglycans,"12.5SHHF^cp/cp Eple knee joints vs untreated 12.5SHHF^cp/cp, FIG. 1D vs. 1C",markedly reduced fibrillations and loss of proteoglycans
same,"Osteophytes, collagen II immunostaining","12.5SHHF^cp/cp Eple knee joints vs untreated 12.5SHHF^cp/cp, FIG. 2D vs. 2C",alleviated osteophytes
same,Synovial tissue histology (Hematoxylin & Eosin): inflammation and fibrosis,"12.5SHHF^cp/cp Eple knee joints vs untreated 12.5SHHF^cp/cp, FIG. 3D vs. 3C",attenuated inflammation and fibrosis of the synovial tissue
same,OARSI scoring of the joint cartilage degradation (cartilage alterations),"12.5SHHF^cp/cp Eple rats vs placebo 12.5SHHF^cp/cp, 100 mg.kg-1.day-1 in drinking water from 1.5 to 12.5 months of age, FIG. 1E",prevents the degradation of joint cartilage; also recorded: drastically decreases the cartilage alterations
same,OARSI scoring of osteophyte (osteophyte formation),"12.5SHHF^cp/cp Eple rats vs placebo 12.5SHHF^cp/cp, 100 mg.kg-1.day-1 in drinking water from 1.5 to 12.5 months of age, FIG. 2E",reduces osteophyte formation; also recorded: significantly hampers osteophyte formation
same,OARSI scoring of the joint inflammation (synovial inflammatory and fibrotic events),"12.5SHHF^cp/cp Eple rats vs placebo 12.5SHHF^cp/cp, 100 mg.kg-1.day-1 in drinking water from 1.5 to 12.5 months of age, FIG. 3E",reduces the joint inflammation; also recorded: markedly reduces the level of inflammatory and fibrotic events
same,Knee joint phenotype,"MetS 12.5SHHF^cp/cp Eple rats treated from 1.5 months onward, compared to placebo 12.5SHHF^cp/cp",phenotypes very similar to those of their ^12.5SHHF^+/+ counterparts
same,Knee joint phenotype,"lean 12.5SHHF^+/+ eple rats, 100 mg.kg-1.day-1 in drinking water from 1.5 to 12.5 months of age",displayed normal phenotype
